According to patent publication US10815222B2, “Compounds for use in the treatment of kinetoplastid infection” (C.N.C.C.S. S.c.a.r.l. COLLEZIONE NAZIONALE DEI COMPOSTI …, priority 2016, dated 2020):

System: Bloodstream form of Trypanosoma brucei, strain Lister 427
Test: Trypanosoma brucei growth inhibition assay (CellTiter-Glo, 24 h)
Assay type: cell-based
Details: Trypanosoma brucei; T. Brucei Growth Inibition Assay, class symbols; read-out: T. Brucei GI EC50
Procedure: Bloodstream form of Trypanosoma brucei, strain Lister 427 (provided by Prof. Miguel Navarro, Instituto de Parasitologia y Biomedicina “Lopez-Neyra” Avda. Conocimiento S/N Parque Tecnologico Ciencias de la Salud—Spain; ref. Navarro M. and Cross G. A. M. Molecular and Cellular Biology, 1996, Vol. 16, No. 7, pp. 3615-3625) were grown in IMDM Iscove's Modified Dulbecco's Medium (SIGMA #17633) supplemented with: 3.024 g/l sodium bicarbonate, hypoxanthine 1 mM, thymidine 0.16 mM, bathocuprione sulfonic acid 0.05 mM, cysteine 1.5 mM, ß-mercaptoethanol […] and 10% foetal bovine serum (heat-inactivated at 56° C. for 30 min). Parasites were grown at 37° C. in flasks with vented caps in a 5% CO2 incubator to a maximum cell density of about 2×10^6/ml and diluted every two-three days.
The compounds of the invention were dissolved in DMSO and transferred to assay plates by acoustic droplet ejection (ATS-100, EDC Biosystems, USA) in order to obtain an appropriate concentration and to keep the concentration of DMSO below or equal to 0.25% in the final assay volume of 30 μL. 1500 parasites resuspended in 30 μL of culture medium were then transferred to each well of a 384-well plate.
After an incubation period of 24 hours at 37° C., each well is added 15 μl of CellTiter-Glo® Reagent (Promega) and incubated at room temperature. 5-10 min post incubation, the plate is read using a luminometer (ViewLux®). A known inhibitor of the growth of T. brucei was used as the reference positive control.

Compound	EC50 [nM]
CN1CCN(C(=O)Cc2ccncc2)C(c2ncc(-c3ccc4ccccc4c3)[nH]2)C1 (centres unmarked)	1010 to 5000
COc1nc2ccccc2cc1-c1cnc(C2CN(C3CCC3)CCN2C(=O)Cc2c(C)[nH]c3ccc(F)cc23)[nH]1 (centres unmarked)	100 to 500
COc1nc2ccccc2cc1-c1cnc([C@@H]2CN(CC3CCOC3)CCN2C(=O)Cn2c(C)nc3cncnc32)[nH]1 (some centres unmarked)	100 to 500
CN1CCN(C(=O)C2(c3ccccc3)CC2)C(c2ncc(-c3ccc4ccccc4c3)[nH]2)C1 (centres unmarked)	1010 to 5000
CCCCCCN1CCN(C(=O)CC2C(=O)Nc3ccc(OC)cc32)C(c2ncc(-c3ccc4ccccc4c3)[nH]2)C1 (centres unmarked)	1010 to 5000
COc1ccc2nc(C)n(CC(=O)N3CC[C@H](OC)C[C@H]3c3ncc(-c4cc5ccccc5nc4OC)[nH]3)c2c1 [1-((2S,4S)-4-methoxy-2-(5-(2-methoxyquinolin-3-yl)-1H-imidazol-2-yl)piperidin-1-yl)-2-(6-methoxy-2-methyl-1H-benzo[d]imidazol-1-yl)ethan-1-one]	< 100
COc1nc2ccccc2cc1-c1cnc([C@@H]2CN(Cc3cnccn3)CCN2C(=O)Cn2c(C(F)(F)F)nc3ccccc32)[nH]1 [(S)-1-(2-(5-(2-methoxyquinolin-3-yl)-1H-imidazol-2-yl)-4-(pyrazin-2-ylmethyl)piperazin-1-yl)-2-(2-(trifluoromethyl)-1H-benzo[d]imidazol-1-yl)ethan-1-one]	< 100
COc1nc2ccccc2cc1-c1cnc([C@@H]2CN(Cc3cncc(F)c3)CCN2C(=O)Cn2c(C(F)(F)F)nc3ccccc32)[nH]1 [(S)-1-(4-((5-fluoropyridin-3-yl)methyl)-2-(5-(2-methoxyquinolin-3-yl)-1H-imidazol-2-yl)piperazin-1-yl)-2-(2-(trifluoromethyl)-1H-benzo[d]imidazol-1-yl)ethan-1-one]	< 100
COc1ccc2nc(C(F)(F)F)n(CC(=O)N3CC[C@H](NCC4COC4)C[C@H]3c3ncc(-c4cc5ccccc5nc4OC)[nH]3)c2c1 [2-(6-methoxy-2-(trifluoromethyl)-1H-benzo[d]imidazol-1-yl)-1-((2S,4S)-2-(5-(2-methoxyquinolin-3-yl)-1H-imidazol-2-yl)-4-((oxetan-3-ylmethyl)amino)piperidin-1-yl)ethan-1-one]	< 100
COc1ccc2nc(C(F)(F)F)n(CC(=O)N3CC[C@H](NCc4cnccn4)C[C@H]3c3ncc(-c4cc5ccccc5nc4OC)[nH]3)c2c1 [2-(6-methoxy-2-(trifluoromethyl)-1H-benzo[d]imidazol-1-yl)-1-((2S,4S)-2-(5-(2-methoxyquinolin-3-yl)-1H-imidazol-2-yl)-4-((pyrazin-2-ylmethyl)amino)piperidin-1-yl)ethan-1-one]	< 100
COc1ccc2cc(C)n(CC(=O)N3CCCCC3c3ncc(-c4cc5ccccc5nc4OC)[nH]3)c2c1 (centres unmarked)	100 to 500
COc1ccc2nc(C(F)(F)F)n(CC(=O)N3CCN(Cc4cnn(C)c4C)CCC3c3ncc(-c4cc5ccccc5nc4OC)[nH]3)c2c1 (centres unmarked)	100 to 500
COc1ccc2nc(C(F)(F)F)n(CC(=O)N3CC[C@H](NCCn4cccn4)C[C@H]3c3ncc(-c4cc5ccccc5nc4OC)[nH]3)c2c1 [1-((2S,4S)-4-((2-(1H-pyrazol-1-yl)ethyl)amino)-2-(5-(2-methoxyquinolin-3-yl)-1H-imidazol-2-yl)piperidin-1-yl)-2-(6-methoxy-2-(trifluoromethyl)-1H-benzo[d]imidazol-1-yl)ethan-1-one]	< 100
COc1ccc2[nH]c(C)c(CC(=O)N3CCNCC3c3ncc(-c4cc5ccccc5nc4OC)[nH]3)c2c1 (centres unmarked)	510 to 1000
COc1nc2ccccc2cc1-c1cnc(C2CN(CC3CC3)CCN2C(=O)CC2=C(C)NC3C=CC=CC23)[nH]1 (centres unmarked)	100 to 500
COc1nc2ccccc2cc1-c1cnc(C2CN(CC3CCOC3)CCN2C(=O)c2c(-c3ccccc3)noc2C)[nH]1 (centres unmarked)	1010 to 5000
COc1nc2ccccc2cc1-c1cnc(C2CN(Cc3cnccn3)CCN2C(=O)Cc2c(C)[nH]c3ccc(F)cc23)[nH]1 (centres unmarked) [2-(5-fluoro-2-methyl-1H-indol-3-yl)-1-(2-(5-(2-methoxyquinolin-3-yl)-1H-imidazol-2-yl)-4-(pyrazin-2-ylmethyl)piperazin-1-yl)ethan-1-one]	< 100
COc1ccc2nc(C)n(CC(=O)N3CCOCC3c3ncc(-c4cc5ccccc5nc4OC)[nH]3)c2c1 (centres unmarked)	1010 to 5000
COc1ccc2nc(C(F)(F)F)n(CC(=O)N3CCN(C4CCS(=O)(=O)CC4)CCC3c3ncc(-c4cc5ccccc5nc4OC)[nH]3)c2c1 (centres unmarked) [1-(4-(1,1-dioxidotetrahydro-2H-thiopyran-4-yl)-7-(5-(2-methoxyquinolin-3-yl)-1H-imidazol-2-yl)-1,4-diazepan-1-yl)-2-(6-methoxy-2-(trifluoromethyl)-1H-benzo[d]imidazol-1-yl)ethan-1-one]	< 100

Compound	EC50 [nM]
COc1ccc2nc(C)n(CC(=O)N3CC[C@H](N4CCOCC4)C[C@H]3c3ncc(-c4cc5ccccc5nc4OC)[nH]3)c2c1 [2-(6-methoxy-2-methyl-1H-benzo[d]imidazol-1-yl)-1-((2S,4S)-2-(5-(2-methoxyquinolin-3-yl)-1H-imidazol-2-yl)-4-morpholinopiperidin-1-yl)ethan-1-one]	100 to 500
COc1ccc2nc(C)n(CC(=O)N3CCN(CC4COC4)CCC3c3ncc(-c4cc5ccccc5nc4OC)[nH]3)c2c1 (centres unmarked)	510 to 1000
COc1ccc2nc(C(F)(F)F)n(CC(=O)N3CCN(CC4CCOC4)CCC3c3ncc(-c4cc5ccccc5nc4OC)[nH]3)c2c1 (centres unmarked) [2-(6-methoxy-2-(trifluoromethyl)-1H-benzo[d]imidazol-1-yl)-1-(7-(5-(2-methoxyquinolin-3-yl)-1H-imidazol-2-yl)-4-((tetrahydrofuran-3-yl)methyl)-1,4-diazepan-1-yl)ethan-1-one]	< 100
COc1nc2ccccc2cc1-c1cnc(C2COCCN2C(=O)Cc2c(C)[nH]c3ccc(F)cc23)[nH]1 (centres unmarked)	510 to 1000
Cc1[nH]c2ccccc2c1CC(=O)N1CCN(Cc2ccccc2)CC1c1ncc(-c2ccc3ccccc3c2)[nH]1 (centres unmarked)	1010 to 5000
COc1ccc2nc(C)n(CC(=O)N3CCN(C4CCOCC4)C[C@H]3c3ncc(-c4cc5ccccc5nc4OC)[nH]3)c2c1	100 to 500
CN1CCN(C(=O)Cc2ccccc2F)C(c2ncc(-c3ccc4ccccc4c3)[nH]2)C1 (centres unmarked)	1010 to 5000
COc1ccc2nc(C(F)(F)F)n(CC(=O)N3CCN(Cc4nccs4)C[C@H]3c3ncc(-c4cc5ccccc5nc4OC)[nH]3)c2c1 [(S)-2-(6-methoxy-2-(trifluoromethyl)-1H-benzo[d]imidazol-1-yl)-1-(2-(5-(2-methoxyquinolin-3-yl)-1H-imidazol-2-yl)-4-(thiazol-2-ylmethyl)piperazin-1-yl)ethan-1-one]	< 100
COc1ccc2c(c1)C(CC(=O)N1CCN(CC3CCOC3)CC1c1ncc(-c3ccc4ccccc4c3)[nH]1)C(=O)N2 (centres unmarked)	1010 to 5000
Cc1[nH]c2ccccc2c1CC(=O)N1CCN(CC2CC2)CC1c1ncc(-c2ccc3ccccc3c2)[nH]1 (centres unmarked)	100 to 500
COc1ccc2nc(C(F)(F)F)n(CC(=O)N3CCN(Cc4noc(C)n4)CCC3c3ncc(-c4cc5ccccc5nc4OC)[nH]3)c2c1 (centres unmarked)	100 to 500
COc1nc2ccccc2cc1-c1cnc([C@@H]2CN(CC3CCOC3)CCN2C(=O)Cn2c(C3CCC3)nc3ccccc32)[nH]1 (some centres unmarked)	100 to 500
COc1nc2ccccc2cc1-c1cnc([C@@H]2CN(CC3CCOC3)CCN2C(=O)Cn2c(C(C)(C)C)nc3ccccc32)[nH]1 (stereo partly drawn) [2-(2-(tert-butyl)-1H-benzo[d]imidazol-1-yl)-1-((2S)-2-(5-(2-methoxyquinolin-3-yl)-1H-imidazol-2-yl)-4-((tetrahydrofuran-3-yl)methyl)piperazin-1-yl)ethan-1-one]	< 100
COc1ccc2nc(C(F)(F)F)n(CC(=O)N3CCN(Cc4ccn(C)n4)CC[C@@H]3c3ncc(-c4cc5ccccc5nc4OC)[nH]3)c2c1 [(R)-2-(6-methoxy-2-(trifluoromethyl)-1H-benzo[d]imidazol-1-yl)-1-(7-(5-(2-methoxyquinolin-3-yl)-1H-imidazol-2-yl)-4-((1-methyl-1H-pyrazol-3-yl)methyl)-1,4-diazepan-1-yl)ethan-1-one]	1010 to 5000
COc1nc2ccccc2cc1-c1cnc([C@@H]2CN(Cc3cnn(C)c3)CCN2C(=O)Cn2c(C(F)(F)F)nc3ccccc32)[nH]1	100 to 500
COc1nc2ccccc2cc1-c1cnc([C@@H]2CN(CC3CCOC3)CCN2C(=O)Cn2c(CC(F)(F)F)nc3ccccc32)[nH]1 (some centres unmarked)	100 to 500
COc1ccc2nc(C(F)(F)F)n(CC(=O)N3CC[C@H](N(C)Cc4nccs4)C[C@H]3c3ncc(-c4cc5ccccc5nc4OC)[nH]3)c2c1 [2-(6-methoxy-2-(trifluoromethyl)-1H-benzo[d]imidazol-1-yl)-1-((2S,4S)-2-(5-(2-methoxyquinolin-3-yl)-1H-imidazol-2-yl)-4-(methyl(thiazol-2-ylmethyl)amino)piperidin-1-yl)ethan-1-one]	< 100
COc1nc2ccccc2cc1-c1cnc(C2CN(CC3CCOC3)CCN2C(=O)c2cc3cc(OCc4ccccc4)ccc3[nH]2)[nH]1 (centres unmarked)	1010 to 5000
COc1ccc2cc(C)n(CC(=O)N3CCN(Cc4ccn(C)n4)CCC3c3ncc(-c4cc5ccccc5nc4OC)[nH]3)c2c1 (centres unmarked) [2-(6-methoxy-2-methyl-1H-indol-1-yl)-1-(7-(5-(2-methoxyquinolin-3-yl)-1H-imidazol-2-yl)-4-((1-methyl-1H-pyrazol-3-yl)methyl)-1,4-diazepan-1-yl)ethan-1-one]	< 100
